One molecule from patent US20220409723A1, “NOVEL VACCINE ADJUVANT COMPOSITION INCLUDING BAVACHIN” (KOREA INSTITUTE OF ORIENTAL MEDICINE, priority 2019, published 2022) can be followed below.

Assay [1] deals with C57/BL6 mice. Briefly: OVA-specific IgG antibody titer in mouse sera by ELISA. Type of assay: in vivo. As to conditions: mice injected s.c. with bavachin (10 or 100 μg) together with OVA (10 μg) vs OVA alone; sera at 28 and 42 days; FIG. 1. As to the method:
(§1) C57/BL6 mice were immunized with a mixture of OVA (10 μg) and bavachin (10 μg) or a mixture of OVA (10 μg) and bavachin (100 μg) by subcutaneous injection once every 1, 3, and 4 weeks. In this regard, those injected with OVA (10 μg) alone was used as a control.
At 28 days and 42 days after the first immunization in Example 2, mouse sera were collected, and the titers of antigen-specific IgG antibodies in the sera were measured by way of ELISA (FIG. 1). At this time, in the ELISA method, an OVA-coated plate was blocked, and then sera of a control group and an experimental group were incubated at various serial dilution rates. Thereafter, horseradish peroxidase-conjugated mouse-IgG and IgG1 antibodies were added, and a substrate was added and allowed to react, followed by measurement with an ELISA reader.
(An ELISA detects its analyte on a solid surface through an enzyme-linked reagent.)

Assay [2] has as its system C57/BL6 mice. Briefly: Serum immunoglobulin isotyping assay (CBA isotyping kit). Type of assay: in vivo, mouse. As to conditions: mice injected with bavachin together with OVA vs OVA alone; FIG. 2. As to the method: as §1
Antibody subclasses in the mouse sera collected in Example 3 were stained with CBA (Cytometric Bead Array) isotyping kit and analyzed by FAGS (FIG. 2).

Assay [3] relates to splenocytes and lymph node cells. Kind of assay: Antigen-specific cell proliferation of splenocytes and lymph node cells by MTS. Type of assay: cell-based, mouse. The settings on record: cells from mice injected with bavachin together with OVA vs OVA alone; day 28; treated with OVA 48 hours; FIG. 3. How it is done: as §1
(§2) Briefly, at 28 days after the first immunization, lymph nodes and spleens were removed from 5 mice per the treated mouse group (0.5% CMC (CON), OVA, Bavachin […], OVA+Bavachin), and ground to isolate cells from the tissue capsule. The spleens were subjected to hemolysis by treatment with an RBC lysis buffer, and splenocytes were isolated.
(§3) The isolated splenocytes and lymph node cells were dispensed in a 96-well-plate at a density of 1×10^6 cells/well, followed by treated with OVA for 48 hours. Thereafter, cell proliferation was measured by MTS (FIG. 3), and cytokines (IFN-γ, IL-2, IL-4, IL-6, IL-10, and TNF) secreted from the cells were measured by CBA (FIG. 4).

Assay [4] has the same test system. Kind of assay: Cytokines secreted from splenocytes and lymph node cells by CBA. Type of assay: cell-based, mouse. The settings on record: cells from mice injected with bavachin together with OVA vs OVA alone; day 28; treated with OVA 48 hours; FIG. 4. As to the method: as §1, §2, §3
The subject of assay [5] is C57/BL6 mice. Briefly: Total numbers of splenocytes and lymph node cells. Type of assay: in vivo, mouse. As to conditions: mice injected with bavachin together with OVA vs OVA alone; day 28; FIG. 5. As to the method:
as §1, §2
The total numbers of the splenocytes and lymph node cells obtained in Example 5 were counted (FIG. 5).

Assay [6] has as its system C57/BL6 mice. Briefly: Percentages of CD4 and CD8 cells in splenocytes by FACS analysis. Type of assay: in vivo, mouse. The settings on record: mice injected with bavachin together with OVA vs OVA alone; FIG. 6. How it is done: as §1, §2
Therefore, percentages of CD4 cells and CD8 cells were compared by performing FAGS analysis of the splenocytes (FIG. 6).
A general note: In flow cytometry, cells or beads pass a laser one at a time.

The subject of assay [7] is C57/BL6 mice. Kind of assay: Percentages of effector T cells in lymph node cells by FACS analysis. Type of assay: in vivo, mouse. As to conditions: mice injected with bavachin together with OVA vs OVA alone; FIG. 7. How it is done: as §1, §2
Further, percentages of CD44^+CD62L^−CD4 cells and CD44^+CD62L^−CD8 cells, which are effector T cells, were compared by performing FAGS analysis of the lymph node cells (FIG. 7).

As for `CC(C)=CCc1cc2c(cc1O)O[C@H](c1ccc(O)cc1)CC2=O` [bavachin], the OVA-specific antibody titers result with C57/BL6 mice [1] was “significantly increased”. Further, in the assay with C57/BL6 mice [2], the “IgA immunoglobulin level in sera” value is listed as “relatively high levels” and the “IgG1 immunoglobulin level in sera” value was “relatively high levels”. In addition, in assay [3], the “cell proliferation ability of lymph node cells” value is on record as “relatively excellent cell proliferation ability” and the “cell proliferation ability of splenocytes” value is “relatively excellent cell proliferation ability”. In addition, in assay [4], the “levels of cytokines (IFN-γ, IL-2, IL-4, IL-6, IL-10, and TNF) secreted from lymph node cells” value is reported as “relatively high levels”; the “levels of cytokines (IFN-γ, IL-2, IL-4, IL-6, IL-10, and TNF) secreted from splenocytes” value was “relatively high levels”. In addition, in the assay with C57/BL6 mice [5], the “number of lymph node cells” value is “relatively high levels” and the number of splenocytes result is reported as “no significant difference”. In addition, in the assay on C57/BL6 mice [6], the “percentage of CD4 cells in splenocytes” value is listed as “relatively high levels” and the “percentage of CD8 cells in splenocytes” value is “relatively high levels”. Further, the “percentages of effector T cells (CD44+CD62L−CD4 and CD44+CD62L−CD8) in lymph node cells” value in the assay on C57/BL6 mice [7] is “relatively high levels”.
